These results are taken from patent publication US12479848B2, “Substituted fused heteroaromatic bicyclic compounds as kinase inhibitors and the use thereof” (IMPACT THERAPEUTICS (SHANGHAI), INC, priority 2019, dated 2025).

Assay [1] concerns human colon cancer cell LoVo. The assay is described as follows: MTT proliferation assay, LoVo. It is filed as cell-based. The protocol:
The cells were seeded into 96-well cell culture plate with a density of 2000/4000 cells per well and incubated overnight in a 5% CO2 incubator at 37° C. […] 5 μL diluent of each concentration was added to 120 μL of medium (25 times diluted) and mixed by shaking. The overnight cell plates were taken and the culture medium was removed, 195 μL of fresh medium was added to each well, and 5 μL of diluted medium containing the corresponding concentration of the test compound was added respectively (the final concentration of DMSO is 1%), and the culture plate was then placed in a 5% CO2 incubator at 37° C. for 4 days. After removing the original solution, 100 μL of fresh serum-free DMEM medium containing MTT (0.5 mg/mL) was added to each well, the culture was continued. […] Cell viability (%)=(ODcompound−ODbackground)/(ODDMSO-ODbackground)×100. GraphPad Prism 6.0 was used to analyze the data. The inhibitory activity of compounds on cell proliferation was plotted based on cell viability and the logarithm of compound concentration.
In general terms: Tetrazolium assays rely on reduction of a dye to a coloured formazan, in cell work by metabolically active cells.

For the next assay, the target named is T1, ATR/ATRIP enzyme (Homo sapiens, UniProt Q13535).
T1 construct: purchased Eurofins 14-953
T1 sequence (Q13535 whole entry): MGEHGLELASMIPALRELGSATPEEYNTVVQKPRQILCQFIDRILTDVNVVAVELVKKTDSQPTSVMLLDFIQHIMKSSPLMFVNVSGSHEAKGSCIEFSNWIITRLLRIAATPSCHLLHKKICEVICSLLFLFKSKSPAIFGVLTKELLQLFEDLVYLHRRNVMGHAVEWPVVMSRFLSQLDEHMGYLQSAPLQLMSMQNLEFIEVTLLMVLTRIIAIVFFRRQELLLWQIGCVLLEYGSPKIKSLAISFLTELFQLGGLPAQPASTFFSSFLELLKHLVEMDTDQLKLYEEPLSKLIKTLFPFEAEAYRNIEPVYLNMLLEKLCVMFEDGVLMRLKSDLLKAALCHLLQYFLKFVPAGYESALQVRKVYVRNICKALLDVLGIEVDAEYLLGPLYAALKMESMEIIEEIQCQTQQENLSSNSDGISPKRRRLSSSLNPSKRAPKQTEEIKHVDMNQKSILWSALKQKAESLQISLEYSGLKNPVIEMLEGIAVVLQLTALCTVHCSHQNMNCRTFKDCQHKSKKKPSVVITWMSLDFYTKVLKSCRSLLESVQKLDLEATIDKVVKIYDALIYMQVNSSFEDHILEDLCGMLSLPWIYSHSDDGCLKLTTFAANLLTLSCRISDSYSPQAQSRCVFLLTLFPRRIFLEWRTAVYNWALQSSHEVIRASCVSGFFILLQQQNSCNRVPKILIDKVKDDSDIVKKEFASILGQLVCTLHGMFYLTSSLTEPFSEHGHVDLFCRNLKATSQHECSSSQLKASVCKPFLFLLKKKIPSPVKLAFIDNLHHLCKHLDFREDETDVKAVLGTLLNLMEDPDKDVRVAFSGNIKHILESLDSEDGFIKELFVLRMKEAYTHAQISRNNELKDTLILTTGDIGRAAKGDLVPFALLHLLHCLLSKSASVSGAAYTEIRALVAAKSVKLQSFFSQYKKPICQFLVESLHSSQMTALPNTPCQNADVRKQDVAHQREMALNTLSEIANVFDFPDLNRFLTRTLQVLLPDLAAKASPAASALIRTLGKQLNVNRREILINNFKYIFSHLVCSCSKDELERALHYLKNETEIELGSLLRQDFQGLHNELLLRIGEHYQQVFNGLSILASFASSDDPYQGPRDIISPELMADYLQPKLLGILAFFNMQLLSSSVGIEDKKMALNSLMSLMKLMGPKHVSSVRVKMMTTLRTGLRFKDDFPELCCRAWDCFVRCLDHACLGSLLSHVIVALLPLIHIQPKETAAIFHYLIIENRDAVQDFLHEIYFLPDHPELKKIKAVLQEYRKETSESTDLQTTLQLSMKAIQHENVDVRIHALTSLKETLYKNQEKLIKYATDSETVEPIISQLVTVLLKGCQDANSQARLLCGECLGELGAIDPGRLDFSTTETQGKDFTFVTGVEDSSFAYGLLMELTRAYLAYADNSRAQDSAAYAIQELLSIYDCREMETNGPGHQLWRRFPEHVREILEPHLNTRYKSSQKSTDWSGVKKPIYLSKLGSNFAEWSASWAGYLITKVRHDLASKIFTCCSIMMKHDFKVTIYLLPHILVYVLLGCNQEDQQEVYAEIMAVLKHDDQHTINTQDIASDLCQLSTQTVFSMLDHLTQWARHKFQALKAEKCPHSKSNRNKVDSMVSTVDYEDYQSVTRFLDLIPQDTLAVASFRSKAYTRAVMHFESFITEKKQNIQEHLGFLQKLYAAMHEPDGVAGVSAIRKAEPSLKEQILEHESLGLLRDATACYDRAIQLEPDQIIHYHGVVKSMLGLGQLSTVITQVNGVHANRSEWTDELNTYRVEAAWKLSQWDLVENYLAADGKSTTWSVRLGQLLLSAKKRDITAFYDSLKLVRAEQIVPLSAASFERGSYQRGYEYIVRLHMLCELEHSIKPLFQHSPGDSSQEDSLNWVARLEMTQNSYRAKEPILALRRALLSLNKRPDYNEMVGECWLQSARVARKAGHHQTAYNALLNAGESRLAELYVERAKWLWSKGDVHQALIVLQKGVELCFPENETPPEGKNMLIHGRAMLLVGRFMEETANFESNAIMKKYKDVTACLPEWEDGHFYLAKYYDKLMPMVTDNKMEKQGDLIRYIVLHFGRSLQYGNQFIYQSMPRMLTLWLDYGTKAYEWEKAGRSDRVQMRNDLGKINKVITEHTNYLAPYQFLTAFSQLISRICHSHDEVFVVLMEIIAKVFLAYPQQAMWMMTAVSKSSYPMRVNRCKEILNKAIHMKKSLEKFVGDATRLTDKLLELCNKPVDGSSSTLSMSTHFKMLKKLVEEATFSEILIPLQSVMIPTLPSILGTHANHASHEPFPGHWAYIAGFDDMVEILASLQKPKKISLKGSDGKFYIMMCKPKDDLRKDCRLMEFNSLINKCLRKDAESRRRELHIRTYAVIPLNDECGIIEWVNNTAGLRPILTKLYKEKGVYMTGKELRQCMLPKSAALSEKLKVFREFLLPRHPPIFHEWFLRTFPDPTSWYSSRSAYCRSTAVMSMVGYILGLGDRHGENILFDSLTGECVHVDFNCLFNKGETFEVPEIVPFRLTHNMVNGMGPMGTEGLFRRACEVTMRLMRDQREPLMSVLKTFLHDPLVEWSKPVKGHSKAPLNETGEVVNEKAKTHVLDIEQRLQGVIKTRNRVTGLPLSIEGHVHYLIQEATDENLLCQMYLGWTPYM
T1 sequence (Q8WXE1 whole entry partner): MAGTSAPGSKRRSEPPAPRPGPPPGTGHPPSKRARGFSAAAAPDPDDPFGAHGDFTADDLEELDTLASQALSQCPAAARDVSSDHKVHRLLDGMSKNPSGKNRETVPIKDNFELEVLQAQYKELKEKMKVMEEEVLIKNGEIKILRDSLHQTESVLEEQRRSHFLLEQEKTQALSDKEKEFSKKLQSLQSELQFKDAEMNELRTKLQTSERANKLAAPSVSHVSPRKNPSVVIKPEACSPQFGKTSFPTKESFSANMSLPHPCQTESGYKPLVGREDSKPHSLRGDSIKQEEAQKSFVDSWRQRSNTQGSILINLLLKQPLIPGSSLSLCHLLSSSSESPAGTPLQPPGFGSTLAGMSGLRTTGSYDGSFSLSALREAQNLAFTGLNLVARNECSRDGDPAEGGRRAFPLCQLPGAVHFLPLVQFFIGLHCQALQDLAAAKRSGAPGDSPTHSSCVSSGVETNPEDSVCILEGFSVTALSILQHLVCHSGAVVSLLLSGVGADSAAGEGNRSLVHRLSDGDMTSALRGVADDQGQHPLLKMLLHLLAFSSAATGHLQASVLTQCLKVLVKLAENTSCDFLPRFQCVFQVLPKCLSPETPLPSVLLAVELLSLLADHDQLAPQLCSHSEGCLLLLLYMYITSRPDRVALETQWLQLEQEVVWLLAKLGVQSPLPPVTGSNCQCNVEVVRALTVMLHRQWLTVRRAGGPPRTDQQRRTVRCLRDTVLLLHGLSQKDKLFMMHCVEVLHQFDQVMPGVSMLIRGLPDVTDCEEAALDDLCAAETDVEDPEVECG
The assay is described as follows: ATR enzyme activity experiment (HTRF). It is filed as biochemical. The following applies: for IC50: read-out: IC50 (nM), inhibitory effects on ATR kinase activity, HTRF, p53 substrate, 30 minutes at room temperature. The protocol: The test compound was diluted to a 4× final concentration with reaction buffer (25 mM HEPES (pH8.0), 10 mM MnCl2, 1% glycerol, 0.01% Brij-35, 5 mM DTT and 0.1% BSA). […] The mixture was centrifuged at 1000 rpm for 1 minute, and reacted at room temperature protected from light for 30 minutes. Then 5 μL of EDTA stop solution (250 mM) was added to stop the reaction. […] Data were analyzed using GraphPad Prism6.0, and fitted using the curve equation: Y=Bottom+(Top−Bottom)/(1+10^((Log IC50−X)*HillSlope)) and IC50 values were calculated.
(Time-resolved FRET reads energy transfer from a long-lived donor to a nearby acceptor.)

For assay [2], the system named is human prostate cancer cell DU145. The assay is described as follows: MTT proliferation assay, DU145. The class given is cell-based. The conditions noted are these: for IC50: Homo sapiens, DU-145, 96 h, 4 days, read-out: IC50 (nM), inhibition of proliferation of DU145. The protocol:
The cells were digested by trypsinase and centrifuged at 800 rpm for 5 minutes, the supernatant was discarded, and the residual was resuspended with fresh medium (DMEM medium+10% FBS+non-essential amino acid) and counted. The cells were seeded into 96-well cell culture plate with a density of 2000 cells per well and incubated overnight in a 5% CO2 incubator at 37° C. […] 5 μL of each concentration was added to 120 μL of medium (25 times diluted) and mixed by shaking. The overnight cell plates were taken and the culture medium was removed, 195 μL of fresh medium was added to each well, and 5 μL of diluted medium containing the corresponding concentration of the test compound was added respectively (the final concentrations of compounds are shown in Table 3, the final concentration of DMSO is 1%), and the culture plate was then placed in a 5% CO2 incubator at 37° C. for 4 days. After removing the original solution, 100 μL of fresh serum-free DMEM medium containing MTT (0.5 mg/mL) was added to each well, the culture was continued. […] GraphPad Prism 6.0 was used to analyze the data. The inhibitory activity of compounds on cell proliferation was plotted based on cell viability and the logarithm of compound concentration. Cell viability %=(ODcompound−ODbackground)/(ODDMSO−ODbackground)×100.

Assay [3] relates to human lung cancer cell NCI-H460. The assay is described as follows: MTT proliferation assay, NCI-H460. It is filed as cell-based. The conditions noted are these: for IC50: Homo sapiens, NCI-H460, 96 h, 4 days, read-out: IC50 (nM), inhibition of proliferation of NCI-H460. The protocol: The cells were seeded into 96-well cell culture plate with a density of 2000/4000 cells per well and incubated overnight in a 5% CO2 incubator at 37° C. […] diluent of each concentration was added to 120 μL of medium (25 times diluted) and mixed by shaking. The overnight cell plates were taken and the culture medium was removed, 195 μL of fresh medium was added to each well, and 5 μL of diluted medium containing the corresponding concentration of the test compound was added respectively (the final concentration of DMSO is 1%), and the culture plate was then placed in a 5% CO2 incubator at 37° C. for 4 days. After removing the original solution, 100 μL of fresh serum-free DMEM medium containing MTT (0.5 mg/mL) was added to each well, the culture was continued. […] Cell viability (%)=(ODcompound−ODbackground)/(ODDMSO−ODbackground)×100. GraphPad Prism 6.0 was used to analyze the data. The inhibitory activity of compounds on cell proliferation was plotted based on cell viability and the logarithm of compound concentration.

Molecules are shown by their SMILES.

In the case of `C[C@@H]1COCCN1c1cc(-c2ccnn2C)c2cnc(-c3ccn[nH]3)n2n1` [Example 13, (R)-3-methyl-4-(4-(1-methyl-1H-pyrazol-5-yl)-7-(1H-pyrazol-5-yl)imidazo[1,5-b]pyridazin-2-yl)morpholine], the “inhibitory effect on the proliferation of LoVo cell (in words)” value in assay [1] is on record as “good inhibitory effect”. The IC50 amounted to 53.5 nM in assay [1] (Homo sapiens, LoVo, 96 h, 4 days, read-out: IC50 (nM), inhibition of proliferation of LoVo); 4 nM at ATR/ATRIP enzyme; 131 nM in assay [2]; 41.3 nM in assay [3]. Further, the “inhibitory effect on ATR kinase activity (in words)” value on ATR/ATRIP enzyme (ATR enzyme activity experiment) is recorded as “good inhibitory effect”. Moreover, the “inhibitory effect on the proliferation of DU145 cell (in words)” value in assay [2] is listed as “good inhibitory effect”. Further, the “inhibitory effect on the proliferation of NCI-H460 cell (in words)” value in assay [3] is given as “good inhibitory effect”.

Consider `CC(C)n1nccc1-c1cc(N2CCOC[C@H]2C)nn2c(-c3ccn[nH]3)cnc12` [Example 4, (R)-3-methyl-4-(8-(1-isopropyl-1H-pyrazol-5-yl)-3-(1H-pyrazol-5-yl)imidazo[1,2-b]pyridazin-6-yl)morpholine], for which the IC50 was found to be 1090 nM in assay [2] and 531 nM in assay [3].

Turning to `C[C@@H]1COCCN1c1cc(-c2ccnn2C)c2ncc(-c3ccn[nH]3)n2n1` [Example 2, (R)-3-methyl-4-(8-(1-methyl-1H-pyrazol-5-yl)-3-(1H-pyrazol-5-yl)imidazo[1,2-b]pyridazin-6-yl)morpholine], in assay [1], the “inhibitory effect on the proliferation of LoVo cell (in words)” value is listed as “inhibitory effect”. For the same compound, the IC50 on ATR/ATRIP enzyme came to 938 nM; in assay [2], 1220 nM; in assay [3], 907 nM. The “inhibitory effect on the proliferation of DU145 cell (in words)” value in assay [2] is “inhibitory effect”. The “inhibitory effect on the proliferation of NCI-H460 cell (in words)” value in assay [3] is recorded as “inhibitory effect”.
